{
  "source": "patent US9856232B1",
  "about": "“Dihydropyrimidinone derivatives” (KING SAUD UNIVERSITY, priority 2017, dated 2018)",
  "key": {"[1]": {"tested_on": "Gastric lesions induced by 80% ethanol", "test": "Gastric lesions induced by ethanol (ulcer index by severity scores)", "type": "in vivo, Albino Wistar rats", "settings": "Rattus norvegicus, po, vs 80% EtOH group, read-out: Gastric lesions induced by 80% ethanol, % change"}, "[2]": {"tested_on": "Gastric lesions induced by necrotizing agents (80% ethanol, 0.2 mol/L NaOH or 25% NaCl)", "test": "Gastric lesions induced by necrotizing agents (cytoprotection)", "type": "in vivo, Albino Wistar rats", "settings": "i.p, 30 min before necrotizing agent, mean ± SE"}, "[3]": {"tested_on": "Hypothermic restraint stress-induced intraluminal bleeding and gastric lesion", "test": "Hypothermic restraint stress-induced ulcers", "type": "in vivo, Albino Wistar rats", "parameters": "Gastric Lesion Ulcer Index: scale not given here", "settings": "hypothermic restraint 3 h, mean ± SE"}, "[4]": {"tested_on": "gastric secretion in pylorus-ligated Shay rats", "test": "Pylorus-ligated rats: gastric secretion, acidity and lesion index", "type": "in vivo, Albino Wistar rats", "parameters": "Ulcer Index, pylorus-ligated Shay rats: scale not given here", "settings": "i.p., 6 h after pylorus ligation, mean ± SE", "experimental": "(§1) Albino Wistar rats of either sex, approximately the same age, weighing 150 to 200 g and fed on a diet of standard chow were used in this study. They were randomly divided into experimental groups of six rats each. Compounds (N-1 to N-18) 12.5, 25, and 50 mg/kg were given orally in the anti-ulcer studies and intraperitoneally for gastric secretion evaluation. The rats were sacrificed, and the stomachs removed and opened along the greater curvature, After washing with saline, the gastric lesions were quantified by a person unaware of the treatments. The animal study protocol was approved by the Research and Ethics Committee of the Experimental Animal Care Society, College of Pharmacy, King Saud University, Riyadh, Saudi Arabia.\nPylorus-ligated rats: Rats were fasted for 36 hours with access to water ad libitum before pylorus ligation under ether anesthesia was carried out. Care was taken not to cause bleeding or to occlude blood vessels. Compounds (N-3, N-8, N-11, and N-15) were administered intraperitoneally immediately after pylorus ligation. The rats were sacrificed at 6 hours after pylorus ligation. The stomachs were removed, the contents were collected, volumes measured, centrifuged and analyzed for tritratable acidity against […], NaOH at pH 7.0. Table 5 provides the effect of compounds on gastric secretion, acidity, and gastric lesion index in pylorus-ligated Shay rats (mean±SE)."}, "[5]": {"tested_on": "gastric mucosal non-protein sulfhydryls, induced by 80% ethanol", "test": "Estimation of non-protein sulfhydryls (NP-SH)", "type": "in vivo, Albino Wistar rats", "settings": "stomach tissue, 80% ethanol-treated rats, mean ± SE", "experimental": "as §1\nEstimation of non-protein sulfhydryls (NP_SH): Gastric mucosal non-protein sulfhydryls were measured according to the method. The glandular part of the stomach was homogenized in ice-cold 0.02 mmol/L ethylenediaminetetraacetic acid (EDTA). Aliquots of 5 mL of the homogenates were mixed in 15 mL test tubes with 4 mL of distilled water and 1 mL of 50% trichloroacetic acid (TCA). The tubes were shaken intermittently for 10 minutes and centrifuged at 3000 r/min. Two milliliters of supernatant were mixed with 4 mL of 0.4 mol/L Tris buffer at pH 8.9. Then 0.1 ML of 5, 5′-dithio-bis (2-nitrobenzoic acid) (DTNB) was added and the sample was shaken. The absorbance was measured within 5 minutes of DTNB addition at 412 nm against a reagent blank."}},
  "note": "Marks after values point to notes of the source that are not given here.",
  "data": [
    {"compound": "CN(C)c1ccc(C2NC(=O)NC=C2C(=O)c2ccc(N3CCCCC3)cc2)cc1", "note": "(stereo not shown) [Compound N-11, 4-(4-Dimethylaminophenyl)-5-[4-(piperidin-1-yl)benzoyl]-3,4-dihydropyrimidin-2(1H)-one]", "values": [
      {"measurement": "inhibition in vivo at 12.5 mg/kg", "setting": "[1]; compound 12.5 mg/kg", "value": 22.5, "unit": "%"},
      {"measurement": "inhibition in vivo at 25 mg/kg", "setting": "[1]; compound 25 mg/kg", "value": 48.3, "unit": "%"},
      {"measurement": "inhibition in vivo at 50 mg/kg", "setting": "[1]; compound 50 mg/kg", "value": 61.2, "unit": "%"},
      {"measurement": "Ulcer Index, 0.2 mol/L NaOH", "setting": "[2]; 12.5 mg/kg", "value": "6.33 ± 0.42"},
      {"measurement": "Ulcer Index, 25% NaCl", "setting": "[2]; 12.5 mg/kg", "value": "6.00 ± 0.36"},
      {"measurement": "Ulcer Index, 80% EtOH", "setting": "[2]; 12.5 mg/kg", "value": "7.16 ± 0.30"},
      {"measurement": "Ulcer Index, 0.2 mol/L NaOH", "setting": "[2]; 25 mg/kg", "value": "3.66 ± 0.21"},
      {"measurement": "Ulcer Index, 25% NaCl", "setting": "[2]; 25 mg/kg", "value": "4.83 ± 0.40"},
      {"measurement": "Ulcer Index, 80% EtOH", "setting": "[2]; 25 mg/kg", "value": "6.16 ± 0.30"},
      {"measurement": "Ulcer Index, 0.2 mol/L NaOH", "setting": "[2]; 50 mg/kg", "value": "3.66 ± 0.33"},
      {"measurement": "Ulcer Index, 25% NaCl", "setting": "[2]; 50 mg/kg", "value": "3.83 ± 0.30"},
      {"measurement": "Ulcer Index, 80% EtOH", "setting": "[2]; 50 mg/kg", "value": "4.83 ± 0.30"},
      {"measurement": "Gastric Lesion Ulcer Index", "setting": "[3]; 12.5 mg/kg", "value": "29.83 ± 1.51"},
      {"measurement": "Intraluminal Bleeding Score", "setting": "[3]; 12.5 mg/kg", "value": "3.66 ± 0.33"},
      {"measurement": "Gastric Lesion Ulcer Index", "setting": "[3]; 50 mg/kg", "value": "21.00 ± 0.51"},
      {"measurement": "Intraluminal Bleeding Score", "setting": "[3]; 50 mg/kg", "value": "2.00 ± 0.36"},
      {"measurement": "Gastric Lesion Ulcer Index", "setting": "[3]; 75 mg/kg", "value": "29.00 ± 1.21"},
      {"measurement": "Intraluminal Bleeding Score", "setting": "[3]; 75 mg/kg", "value": "2.66 ± 0.33"},
      {"measurement": "Titratable Acidity", "setting": "[4]; 12.5 mg/kg", "value": "160.55 ± 3.48", "unit": "mEg/L"},
      {"measurement": "Ulcer Index, pylorus-ligated Shay rats", "setting": "[4]; 12.5 mg/kg", "value": "2.83 ± 0.30"},
      {"measurement": "Volume of Gastric Content", "setting": "[4]; 12.5 mg/kg", "value": "10.20 ± 0.29", "unit": "mL"},
      {"measurement": "Titratable Acidity", "setting": "[4]; 25 mg/kg", "value": "141.11 ± 6.30", "unit": "mEg/L"},
      {"measurement": "Ulcer Index, pylorus-ligated Shay rats", "setting": "[4]; 25 mg/kg", "value": "2.50 ± 0.42"},
      {"measurement": "Volume of Gastric Content", "setting": "[4]; 25 mg/kg", "value": "7.35 ± 0.19", "unit": "mL"},
      {"measurement": "Titratable Acidity", "setting": "[4]; 50 mg/kg", "value": "116.66 ± 4.63", "unit": "mEg/L"},
      {"measurement": "Ulcer Index, pylorus-ligated Shay rats", "setting": "[4]; 50 mg/kg", "value": "2.33 ± 0.71"},
      {"measurement": "Volume of Gastric Content", "setting": "[4]; 50 mg/kg", "value": "6.63 ± 0.21", "unit": "mL"},
      {"measurement": "NP-SH", "setting": "[5]; dose 12.5", "value": "2.93 ± 0.11^b nmol/g"},
      {"measurement": "NP-SH", "setting": "[5]; dose 25", "value": "3.40 ± 0.18^b nmol/g"},
      {"measurement": "NP-SH", "setting": "[5]; dose 50", "value": "4.35 ± 0.11***^b nmol/g"},
      {"measurement": "melting point", "value": "185 to 187", "unit": "°C"}
    ]}
  ]
}
